Measured values: PubChem BioAssay (NCI)
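Cultured in 96-well plates, cells were exposed to test compound for 48 hours across five concentrations. GI50 is the concentration that inhibits growth by half. TGI denotes the concentration required for complete inhibition of growth.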

Tests used:
Assay in all cases: inhibition of tumour cell growth, NCI panel, 48 h
[1] = system: HOP-62 NSCLC
[2] = system: SF-295 CNS
[3] = system: TK-10 renal
[4] = system: UACC-62 melanoma
[5] = system: OVCAR-4 ovarian
[6] = system: HCC-2998 colon
[7] = system: SF-268 CNS
[8] = system: BT-549 breast
[9] = system: SN12C renal
[10] = system: MDA-MB-231 breast
[11] = system: NCI/ADR-RES ovarian
[12] = system: HCT-15 colon
[13] = system: MCF7 breast
[14] = system: LOX IMVI melanoma
[15] = system: A498 renal

`C[C@H]1S[C@H](c2c(F)cccc2F)n2c1nc1ccccc12` showed a TGI [1] greater than 100 µM, a TGI [2] greater than 100 µM and a TGI [3] greater than 100 µM. It also gave a TGI [4] greater than 100 µM, a TGI [5] greater than 100 µM and a TGI [6] greater than 100 µM. It also gave a TGI [7] greater than 100 µM, a TGI [8] greater than 100 µM and a TGI [9] greater than 100 µM. It also gave a TGI [10] greater than 100 µM, a TGI [11] greater than 100 µM and a TGI [12] greater than 100 µM. The TGI [13] was greater than 100 µM.

In the case of `Cc1ccc(O)c(C2=NNC(c3cccc(Cl)c3)C2)c1` (stereo not given), the TGI [14] is reported as greater than 100 µM, the TGI [1] is reported as greater than 100 µM and the TGI [2] is reported as greater than 100 µM. The TGI [3] was greater than 100 µM, the TGI [4] was greater than 100 µM and the TGI [5] was 94 µM. The TGI [7] was greater than 100 µM, the TGI [8] was greater than 100 µM and the TGI [9] was greater than 100 µM. For the same compound, the TGI [10] was greater than 100 µM, the TGI [11] was greater than 100 µM and the TGI [12] was 29.3 µM. For the same compound, the TGI [13] was greater than 100 µM.

`Cc1cc(S(=O)(=O)NC2=NCC(C)(C)CN2)c(S)cc1Cl` showed a TGI [14] of 31.2 µM, a TGI [1] greater than 100 µM and a TGI [3] greater than 100 µM. It also gave a TGI [4] of 61.9 µM, a TGI [5] of 64.5 µM and a TGI [6] greater than 100 µM. For the same compound, the TGI [7] was greater than 100 µM, the TGI [8] was greater than 100 µM and the TGI [9] was greater than 100 µM. It also gave a TGI [10] greater than 100 µM, a TGI [11] greater than 100 µM and a TGI [12] greater than 100 µM. The TGI [15] was greater than 100 µM and the TGI [13] was greater than 100 µM.

Work on `COC(=O)[C@@H]1[C@H]2CC[C@]3(C)[C@@H](OC(C)=O)CC[C@H]3[C@@H]2CC[C@H]1C(C)=O` yielded a TGI [14] greater than 100 µM, a TGI [1] greater than 100 µM and a TGI [2] greater than 100 µM. It also gave a TGI [3] greater than 100 µM, a TGI [4] greater than 100 µM and a TGI [6] greater than 100 µM. It also gave a TGI [7] greater than 100 µM, a TGI [8] greater than 100 µM and a TGI [9] greater than 100 µM. For the same compound, the TGI [10] was greater than 100 µM, the TGI [11] was greater than 100 µM and the TGI [12] was greater than 100 µM. The TGI [15] was greater than 100 µM and the TGI [13] was greater than 100 µM.

With `COc1cc(-c2ccccc2)cn2c1nc1ccccc12` the TGI [14] was 52.4 µM, the TGI [1] was 43.6 µM and the TGI [4] was 43.9 µM. It also gave a TGI [6] of 33.7 µM, a TGI [7] of 79.4 µM and a TGI [8] of 32.9 µM. For the same compound, the TGI [9] was 46.2 µM, the TGI [10] was 49.8 µM and the TGI [11] was 66.7 µM. For the same compound, the TGI [12] was 43.2 µM and the TGI [13] was 35.4 µM.

Work on `COc1ccc2[nH]c3c(O)c(-c4c(C)cc5c([nH]c6ccc(OC)cc65)c4O)c(C)cc3c2c1` yielded a TGI [14] of 8.06 µM, a TGI [1] of 8.35 µM and a GI50 [2] of 5.11 µM. The TGI [2] was 8.86 µM, the TGI [3] was 8.19 µM and the TGI [5] was 7.22 µM. The TGI [6] was 6.99 µM, the TGI [7] was 8.06 µM and the TGI [8] was 8.2 µM. For the same compound, the TGI [9] was 8.17 µM, the TGI [10] was 10.8 µM and the TGI [11] was 8.13 µM. The GI50 [12] was 4.2 µM, the TGI [12] was 8.2 µM and the GI50 [15] was 4.78 µM. It also gave a TGI [15] of 8.35 µM, a GI50 [13] of 4.49 µM and a TGI [13] of 8.43 µM.

For `CC1N=C(c2ccccc2)OC1=O` (stereo not given), the TGI [14] was greater than 100 µM, the TGI [1] was greater than 100 µM and the TGI [2] was greater than 100 µM. It also gave a TGI [3] greater than 100 µM, a TGI [4] greater than 100 µM and a TGI [5] greater than 100 µM. For the same compound, the TGI [7] was greater than 100 µM, the TGI [8] was greater than 100 µM and the TGI [9] was greater than 100 µM. It also gave a TGI [10] greater than 100 µM, a TGI [11] greater than 100 µM and a TGI [12] greater than 100 µM. For the same compound, the TGI [15] was greater than 100 µM and the TGI [13] was greater than 100 µM.

For `CN1N=C(c2ccccc2)c2cc(Cl)ccc2N=C1N/N=C/c1ccc(N(C)C)cc1`, the TGI [1] was greater than 100 µM, the TGI [2] was greater than 100 µM and the TGI [3] was greater than 100 µM. For the same compound, the TGI [4] was greater than 100 µM, the TGI [5] was greater than 100 µM and the TGI [6] was greater than 100 µM. The TGI [7] was greater than 100 µM, the TGI [8] was greater than 100 µM and the TGI [9] was greater than 100 µM. It also gave a TGI [10] greater than 100 µM, a TGI [11] greater than 100 µM and a TGI [12] greater than 100 µM. The TGI [13] was greater than 100 µM.
